Test results taken from ChEMBL document CHEMBL5131384, “Design, synthesis, and biological evaluation of indole-based hydroxamic acid derivatives as histone deacetylase inhibitors” (Eur J Med Chem, 2022).
Blank lines part the entries; values can stand above or below the compound they belong to.

How the values were obtained:
[1] = target: T1, Protein deacetylase HDAC6 (Homo sapiens, UniProt Q9UBN7); assay: Inhibition of HDAC6 (unknown origin) using Boc-Lys(Ac)-AMC as substrate incubated for 60 mins by fluorescence plate reader assay
T1 sequence (Q9UBN7 whole entry): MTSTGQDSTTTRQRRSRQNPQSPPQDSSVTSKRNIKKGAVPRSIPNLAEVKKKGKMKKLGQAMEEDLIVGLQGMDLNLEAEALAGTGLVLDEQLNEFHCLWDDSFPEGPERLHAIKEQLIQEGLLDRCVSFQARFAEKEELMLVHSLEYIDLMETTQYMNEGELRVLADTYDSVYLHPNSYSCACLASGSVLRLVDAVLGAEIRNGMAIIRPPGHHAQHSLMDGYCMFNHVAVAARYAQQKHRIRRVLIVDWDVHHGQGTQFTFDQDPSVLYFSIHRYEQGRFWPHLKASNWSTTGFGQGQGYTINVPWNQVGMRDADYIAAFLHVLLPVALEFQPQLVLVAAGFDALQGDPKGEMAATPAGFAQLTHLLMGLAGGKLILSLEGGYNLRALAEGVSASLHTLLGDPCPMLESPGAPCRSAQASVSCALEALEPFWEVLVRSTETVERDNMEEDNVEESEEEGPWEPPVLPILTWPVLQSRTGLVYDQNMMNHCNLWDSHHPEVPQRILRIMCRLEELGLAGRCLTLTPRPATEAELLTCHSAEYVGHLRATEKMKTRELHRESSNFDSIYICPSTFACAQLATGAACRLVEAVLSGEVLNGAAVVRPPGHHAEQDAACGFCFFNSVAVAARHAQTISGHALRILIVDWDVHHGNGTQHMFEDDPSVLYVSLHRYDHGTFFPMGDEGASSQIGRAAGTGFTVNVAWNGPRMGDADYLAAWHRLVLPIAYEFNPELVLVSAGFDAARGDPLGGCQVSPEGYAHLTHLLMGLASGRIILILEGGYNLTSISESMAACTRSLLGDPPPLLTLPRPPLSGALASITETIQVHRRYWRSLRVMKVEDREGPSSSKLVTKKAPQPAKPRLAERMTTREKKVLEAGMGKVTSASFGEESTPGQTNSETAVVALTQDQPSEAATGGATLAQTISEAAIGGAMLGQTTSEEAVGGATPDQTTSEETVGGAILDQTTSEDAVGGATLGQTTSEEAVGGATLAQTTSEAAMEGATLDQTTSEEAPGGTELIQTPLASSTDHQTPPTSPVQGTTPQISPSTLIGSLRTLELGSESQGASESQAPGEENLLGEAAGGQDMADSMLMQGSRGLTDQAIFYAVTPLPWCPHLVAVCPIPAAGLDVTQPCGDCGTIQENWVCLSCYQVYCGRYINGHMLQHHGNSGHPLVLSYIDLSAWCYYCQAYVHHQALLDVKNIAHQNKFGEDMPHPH

[2] = target: Histone deacetylase 1 (Homo sapiens, UniProt Q13547); assay: Inhibition of HDAC1 (unknown origin) using Boc-Lys(Ac)-AMC as substrate incubated for 60 mins by fluorescence plate reader assay
Histone deacetylase 1, sequence (Q13547 whole entry): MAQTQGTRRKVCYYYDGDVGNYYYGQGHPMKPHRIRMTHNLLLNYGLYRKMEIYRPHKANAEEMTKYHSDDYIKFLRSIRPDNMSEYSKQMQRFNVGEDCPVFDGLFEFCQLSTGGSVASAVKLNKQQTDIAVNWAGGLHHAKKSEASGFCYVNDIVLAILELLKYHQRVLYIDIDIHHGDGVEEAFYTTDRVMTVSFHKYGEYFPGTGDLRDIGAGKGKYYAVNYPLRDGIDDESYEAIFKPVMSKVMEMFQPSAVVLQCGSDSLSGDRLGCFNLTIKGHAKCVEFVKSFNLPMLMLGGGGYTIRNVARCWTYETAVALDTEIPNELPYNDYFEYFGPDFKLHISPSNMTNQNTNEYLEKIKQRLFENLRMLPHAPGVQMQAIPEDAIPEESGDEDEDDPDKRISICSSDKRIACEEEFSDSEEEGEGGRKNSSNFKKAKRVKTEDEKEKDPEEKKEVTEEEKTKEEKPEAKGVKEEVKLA

[3] = test system: HCT-116; assay: Antiproliferative activity against human HCT-116 cells assessed as reduction in cell viability incubated for 72 hrs by WST-8 assay; assay type: functional, cell-based; conditions: HCT-116, 72 h
[4] = test system: MDA-MB-231; assay: Antiproliferative activity against human MDA-MB-231 cells assessed as reduction in cell viability incubated for 72 hrs by WST-8 assay; assay type: functional, cell-based; conditions: MDA-MB-231, 72 h
[5] = test system: SGC-7901; assay: Antiproliferative activity against human SGC-7901 cells assessed as reduction in cell viability incubated for 72 hrs by WST-8 assay; assay type: functional, cell-based; conditions: SGC-7901, 72 h
[6] = test system: HL-60; assay: Antiproliferative activity against human HL-60 cells assessed as reduction in cell viability incubated for 72 hrs by WST-8 assay; assay type: functional, cell-based; conditions: HL-60, 72 h
[7] = test system: A549; assay: Antiproliferative activity against human A549 cells assessed as reduction in cell viability incubated for 72 hrs by WST-8 assay; assay type: functional, cell-based; conditions: A549, 72 h

Compound: O=C(NO)c1ccc(Cn2cc(C(=O)NC3C4CC5CC(C4)CC3C5)c3ccccc32)cc1 (configuration not stated)
IC50 [1]: 0.00529 µM | IC50 [2]: 0.115 µM

Compound: O=C(CCCCCCn1cc(C(=O)NC2CCCCC2)c2ccccc21)NO
IC50 [1]: 0.00232 µM | IC50 [3]: 15 µM | IC50 [4]: > 100 µM | IC50 [5]: 25.4 µM | IC50 [2]: 0.00156 µM | IC50 [6]: 8.5 µM | IC50 [7]: > 100 µM

IC50 [1]: 0.00684 µM | IC50 [2]: 0.00216 µM
Compound: O=C(CCCCCCn1c(C(=O)NC2C3CC4CC(C3)CC2C4)cc2cc(Cl)ccc21)NO (configuration not stated)

Compound: O=C(CCCCCCn1cc(C(=O)N2CCOCC2)c2ccccc21)NO
IC50 [1]: 0.00759 µM | IC50 [2]: 0.00895 µM

Compound: O=C(CCCCCCn1cc(C(=O)NC23CC4CC(CC(C4)C2)C3)c2ccccc21)NO
IC50 [1]: 0.00192 µM | IC50 [3]: 45 µM | IC50 [4]: 20.8 µM | IC50 [5]: 14.7 µM | IC50 [2]: 0.00116 µM | IC50 [6]: 1.05 µM | IC50 [7]: > 100 µM

Compound: O=C(CCCCCCn1cc(C(=O)Nc2ccc(Cl)cc2Cl)c2ccccc21)NO
IC50 [1]: 0.00373 µM | IC50 [3]: 4.5 µM | IC50 [4]: 16.2 µM | IC50 [5]: 2.59 µM | IC50 [2]: 0.00253 µM | IC50 [6]: 10.5 µM | IC50 [7]: 47 µM

IC50 [1]: 0.00525 µM | IC50 [2]: 0.00168 µM
Compound: O=C(CCCCCCn1c(C(=O)NC2C3CC4CC(C3)CC2C4)nc2ccccc21)NO (configuration not stated)

Compound: O=C(NC1C2CC3CC(C2)CC1C3)c1cn(CCCCCCS)c2ccccc12 (configuration not stated)
IC50 [1]: 0.019 µM | IC50 [2]: 0.169 µM

Compound: O=C(CCCCCn1cc(C(=O)NC2C3CC4CC(C3)CC2C4)c2ccccc21)NO (configuration not stated)
IC50 [1]: 0.0104 µM | IC50 [2]: 0.0674 µM

Compound: O=C(CCCCCCn1cc(C(=O)NC2CCCCCC2)c2ccccc21)NO
IC50 [1]: 0.00211 µM | IC50 [2]: 0.002 µM

Compound: O=C(CCCCCCn1cc(C(=O)NC2C3CC4CC(C3)CC2C4)c2ccccc21)NO (configuration not stated)
IC50 [1]: 0.0017 µM | IC50 [2]: 0.00204 µM
